According to US20250090545A1, “METHODS AND COMPOSITIONS FOR TREATMENT OF PERIPHERAL NEUROPATHIES” (UNIVERSITY OF MANITOBA, priority 2013, published 2025):

How the values were obtained:
[1] = test system: adult sensory neuron cultures from STZ-induced diabetic rats; assay: Mitochondrial respiration (OCR) in adult sensory neuron cultures; type: cell-based, rat; conditions: 1 μM for 3 h
Protocol: Mitochondrial respiration in adult mouse sensory neuron cultures from wild type control mice, M1 receptor knockout mice (M1R KO), and from diabetic mice that received dosing with 1 μM of VU0255035 for 3 h, were assessed following the methods taught by Roy Chowdhury et al. (2012). The M1R knockout mice were a gift from Dr. Jurgen Wess (Molecular Signaling Section, Laboratory of Bioorganic Chemistry, National Institute of Diabetes and Digestive and Kidney Diseases, National Institutes of Health).
This bioenergetics parameter, which is depressed in diabetes, is related to the capacity of cells to conduct respiration under conditions of stress or high ATP demand. In this regard we propose the stress is the presence of high intracellular glucose concentrations.

[2] = molecular target: T1, type 1 muscarinic receptor (M1R) (Homo sapiens, UniProt P11229); conditions: cited from earlier work
T1 sequence (P11229 1-460): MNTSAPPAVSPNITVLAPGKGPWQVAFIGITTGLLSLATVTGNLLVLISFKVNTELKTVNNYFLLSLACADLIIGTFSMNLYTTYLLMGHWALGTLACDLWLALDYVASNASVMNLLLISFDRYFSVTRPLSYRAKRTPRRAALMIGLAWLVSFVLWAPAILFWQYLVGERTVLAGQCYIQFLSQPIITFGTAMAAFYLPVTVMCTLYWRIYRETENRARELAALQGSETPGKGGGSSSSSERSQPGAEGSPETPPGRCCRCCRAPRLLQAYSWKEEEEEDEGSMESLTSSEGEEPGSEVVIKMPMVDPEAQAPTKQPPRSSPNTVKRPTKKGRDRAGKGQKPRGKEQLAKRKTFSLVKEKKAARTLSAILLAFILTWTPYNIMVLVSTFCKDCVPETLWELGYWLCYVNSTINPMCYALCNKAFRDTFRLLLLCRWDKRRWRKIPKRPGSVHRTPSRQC

[3] = test system: paclitaxel-treated Swiss Webster mice; type: in vivo, mouse; conditions: pirenzepine daily s.c. for 4 weeks (10 mg/kg/day, also printed 1 mg/kg/day)
Protocol: Swiss Webster mice were treated with paclitaxel (taxol; 5 mg/kg on days 1,3,5 and 7) to induce peripheral neuropathy. […] Data points are group mean of n=9-12/group±SEM. Significant differences were determined with a oneway ANOVA followed by Dunnett's post-hoc test.

[4] = test system: DCA-treated Swiss Webster mice; conditions: pirenzepine 10 mg/kg/day s.c.
Protocol: Swiss Webster mice were treated with DCA (1 mg/kg/day s.c.) for 8 weeks to induce peripheral neuropathy following the method described for rats by Calcutt et al. (2009, Peripheral neuropathy in rats exposed to dichloroacetate. J. Neuropath. Exp. Neurol. 68:985-93). Some DCA-treated mice were also treated with pirenzepine (Pz: 10 mg/kg/day s.c.) for the duration of the study while others were treated with vehicle alone.

[5] = test system: STZ-induced diabetic rats; assay: Motor and sensory nerve conduction velocity in STZ-induced diabetic rats; type: in vivo, rat; conditions: 5 mg/kg s.c., 8 weeks; p<0.05 vs vehicle-treated diabetic rats
Protocol: The STZ rat is a model of type 1 diabetes. Rats were treated with 5 mg/kg (s.c.) pirenzepine for 8 weeks following the method taught by Calcutt et al. (2003, Therapeutic efficacy of sonic hedgehog protein in experimental diabetic neuropathy. J. Clin. Invest. 111:507-514). Nerve conduction velocities (NCV) were determined following the methods taught by Mizisin et al. (2004, Ciliary Neurotrophic Factor Improves Nerve Conduction and Ameliorates Regeneration Deficits in Diabetic Rats. Diabetes 53:1807-12). […] All data are group mean±SEM (N=5-6 group). Statistical analysis by one-way ANOVA with Dunnett's post-hoc test.

[6] = test system: adult sensory neuron cultures derived from STZ-induced diabetic rats; assay: Neurite outgrowth in sensory neuron cultures transduced with dominant negative AMPK mutants; type: cell-based, rat; conditions: 1.0 μM pirenzepine; adenovirus dominant negative AMPK mutants AdDN1/AdDN2
Protocol: Adult sensory neuron cultures derived from STZ-induced diabetic rats were transduced for two days after treatment with 1.0 μM pirenzepine, with two adenovirus over-expressing dominant negative mutants of AMPK, i.e., AMPK subunit α1 and α2 mutants named “AdDN1” and “AdDN2” (the adenovirus over-expressing dominant negative mutants were gifts from Dr. Jason Dyck, University of Alberta) following the procedure taught by Roy Chowdhury et al., (2012).

[7] = test system: cultured adult rat sensory neurons; type: cell-based; conditions: 1 μM; gp120 24 hours; P<0.05
Protocol: To further extend our investigation of the actions of muscarinic receptor antagonists on nerve growth, cultured adult rat sensory neurons were treated for 24 hours with recombinant gp120, an external coat protein of HIV that causes toxicity to sensory neurons in HIV neuropathy (FIG. 24). This toxicity leads to axon degeneration and neuronal cell death. Cultures were treated with 1 μM pirenzpeine and total neurite outgrowth determined. […] Values are means±SEM. n=6.

[8] = test system: AMP-activated protein kinase (AMPK); assay: AMPK phosphorylation (Western blot) in cultured adult sensory neurons; type: cell-based, rat; conditions: 1.0 μM, 15-60 min
Protocol: Subsets of cultured adult sensory neurons derived from age-matched control rats or 3-5 month STZ-induced diabetic rats were treated with a 1.0 μM pirenzepine-HCl dosage. The first subset was processed immediately while the second, third and fourth subsets of the neurons from the control rats and the diabetic rats were processed after 15 min, after 30 min, and after 60 min respectively following treatment with pirenzepine. The cell cultures were lysed and then used to prepare Western blots which were then probed with antibodies against phosphorylated AMPK (P-AMPK), total AMPK (T-AMPK) and total ERK (T-ERK). […] Values are means±SEM, N=3/group. Statistical significance was analyzed using one-way ANOVA with Tukey's post-hoc test.

[9] = test system: adult sensory neurons from normal rats; assay: Neurite outgrowth of sensory neurons exposed to paclitaxel or oxaliplatin; type: cell-based, rat; conditions: 24 hours, pirenzepine 0.1, 1.0 or 10 μM
Protocol: Adult sensory neurons from normal rats were cultured for 24 hours in the presence of(A) paclitaxel (PX; 0.1 μM or 0.3 μM), or (B) oxaliplatin (OX; 3.0 μM). From time of plating some cultures were treated with 0.1, 1.0 or 10 μM pirenzepine (PZ). Levels of total neurite outgrowth were determined and presented as means±SEM, N=6-8/group. Significant differences were assessed in(A) by t-test, and in(B) by one-way ANOVA with Dunnett's post-hoc test.

PGC-1α = PGC-1α transcriptional activity, luciferase reporter in adult sensory neurons; type: cell-based, rat; conditions: 1 μM; neurons from STZ-induced diabetic rats
Protocol: PGC-1α transcriptional activity was determined in dissociated adult sensory neurons derived from STZ-induced diabetic rats by transfection for two days with luciferase-based reporter plasmids by following the methods taught in the AMAXA® NUCLEOFECTOR® II Manual (www.amaxa.com; AMAX and NUCLEOFECTOR are registered trademarks of Amaxa GmBH Corp., Koln, Fed. Rep. Germany) and by Saleh et al. (2013, Ciliary neurotrophic factor activates NF-κB to enhance mitochondrial bioenergetics and prevent neuropathy in sensory neurons of streptozotocin-induced diabetic rodents. Neuropharmacology 65:65-75) (the luciferase-based reporter plasmids were a gift from Dr. Michael Czubryt, University of Manitoba).

SMILES	coupling efficiency [1]	oxygen consumption rate (OCR) [1]	respiratory control ratio [1]	spare respiratory capacity ([1]; compared to controls)	selectivity to M1R relative to M2, M3, M4 and M5 receptors [2]	tactile allodynia (paw 50% tactile response threshold) [3]	thermal hyperalgesia (paw thermal response latency) [3]	depletion of paw skin IENF ([4]; 8 weeks)	paw thermal hypoalgesia ([4]; 8 weeks)	onset of MNCV slowing ([4]; after 4 weeks of exposure)	motor nerve conduction velocity (MNCV) slowing [5]	sensory nerve conduction velocity (SNCV) slowing [5]	pirenzepine-induced neurite outgrowth under blockage of AMPK signaling [6]	protection from gp120-induced neurite degeneration [7]	P-AMPK level ([8]; cultures from normal (age-matched control) rats)	P-AMPK level ([8]; cultures from type 1 (STZ) diabetic rats)	reduced neurite outgrowth caused by oxaliplatin ([9]; oxaliplatin 3.0 μM)	reduced neurite outgrowth caused by paclitaxel ([9]; paclitaxel 0.1 or 0.3 μM)	transcriptional activity of PGC-1α (PGC-1α)
O=C(CCNS(=O)(=O)c1cccc2nsnc12)N1CCN(c2ccncc2)CC1 [VU0255035]	not dissimilar	increased	not dissimilar	significantly increased	75 times														
CN1CCN(CC(=O)N2c3ccccc3C(=O)Nc3cccnc32)CC1 [pirenzepine]						prevented	prevented	prevented	prevented	delayed onset	attenuated	attenuated	completely inhibited	complete protection	significantly activated	significantly activated	prevented	prevented	enhanced
